Data as given in ChEMBL document CHEMBL6096651, “Synthesis, evaluation and mechanism study of novel pyrazole enamides to alleviate lung injury” (Eur J Med Chem, 2025).
One block for each compound: values may come before it. Activity calls are given as the source filed them. The rule behind the calls is not given here.

Legend:
[1] = system: RAW264.7; experiment: Anti-inflammatory activity against LPS-induced mouse RAW264.7 cells assessed as inhibition of IL-6 mRNA level at 10 uM preincubated with compound for 1 hr followed by LPS-induction and measured after 4 to 24 hrs by RT-qPCR analysis; type: functional; settings: time 5-25 hrs
[2] = system: RAW264.7; experiment: Anti-inflammatory activity against LPS-induced mouse RAW264.7 cells assessed as inhibition of IL-1beta mRNA level at 10 uM preincubated with compound for 1 hr followed by LPS-induction and measured after 4 to 24 hrs by RT-qPCR analysis; type: functional; settings: time 5-25 hrs
[3] = system: RAW264.7; experiment: Anti-inflammatory activity against LPS-induced mouse RAW264.7 cells assessed as inhibition of IL-1beta mRNA level at 2 uM preincubated with compound for 1 hr followed by LPS-induction and measured after 4 to 24 hrs by RT-qPCR analysis; type: functional, cell-based; settings: time 5-25 hrs
[4] = system: RAW264.7; experiment: Anti-inflammatory activity against LPS-induced mouse RAW264.7 cells assessed as inhibition of TNF-alpha mRNA level at 2 uM preincubated with compound for 1 hr followed by LPS-induction and measured after 4 to 24 hrs by RT-qPCR analysis; type: functional, cell-based; settings: time 5-25 hrs
[5] = system: RAW264.7; experiment: Anti-inflammatory activity against LPS-induced mouse RAW264.7 cells assessed as increase in NRF2 nuclear translocation by laser confocal scanning microscopic analysis; type: functional, cell-based
[6] = system: RAW264.7; experiment: Activation of Nrf2/HO-1 signalling pathway in LPS-induced mouse RAW264.7 cells assessed as induction of Nrf2 nuclear translocation at 2 uM; type: cell-based; settings: filed as activator
[7] = Toxicity in C57BL/6 mouse assessed as pathological changes in kidney at 15 to 60 mg/kg, po administered for 7 days by H and E staining based analysis; type: organism-based; settings: in vivo, 168 h, dose 15-60 mg/kg, time 7 day
[8] = system: RAW264.7; experiment: Anti-inflammatory activity against LPS-induced mouse RAW264.7 cells assessed as inhibition of TNF-alpha mRNA level at 20 uM preincubated with compound for 1 hr followed by LPS-induction and measured after 4 to 24 hrs by RT-qPCR analysis; type: functional, cell-based; settings: time 5-25 hrs
[9] = system: Mus musculus; experiment: Anti-inflammatory activity against PM2.5-induced lung injury C57BL/6 mouse model assessed as increase in Arg-1 level in lung at 15 to 60 mg/kg, po administered for 7 days by IHC analysis; type: functional, organism-based; settings: dose 15-60 mg/kg, time 7.0 day
[10] = system: RAW264.7; experiment: Activation of Nrf2-Keap1-HO-1 signaling pathway in mouse RAW264.7 cells assessed as upregulation of P62 expression at 10 to 50 uM by Western blot analysis; type: cell-based; settings: filed as activator, dose 10-50 µM
[11] = system: Mus musculus; experiment: Anti-inflammatory activity against PM2.5-induced lung injury C57BL/6 mouse model assessed as reduction in WBC cells in peripheral blood at 15 to 60 mg/kg, po administered for 7 days; type: functional, organism-based; settings: dose 15-60 mg/kg, time 7.0 day
[12] = system: RAW264.7; experiment: Upregulation of HO-1 mRNA level in LPS-induced mouse RAW264.7 cells at 10 to 50 uM; type: functional, cell-based; settings: dose 10-50 µM
[13] = system: RAW264.7; experiment: Anti-inflammatory activity against LPS-induced mouse RAW264.7 cells assessed as inhibition of IL-1beta mRNA level at 20 uM preincubated with compound for 1 hr followed by LPS-induction and measured after 4 to 24 hrs by RT-qPCR analysis; type: functional, cell-based; settings: time 5-25 hrs
[14] = system: RAW264.7; experiment: Anti-inflammatory activity against LPS-induced mouse RAW264.7 cells assessed as inhibition of TNF-alpha mRNA level preincubated with compound for 1 hr followed by LPS-induction and measured after 4 to 24 hrs by RT-qPCR analysis; type: functional, cell-based; settings: dose 10-50 µM, time 5-25 hrs
[15] = system: Mus musculus; experiment: Anti-inflammatory activity against PM2.5-induced lung injury C57BL/6 mouse model assessed as decrease in collagen formation in lung at 15 to 60 mg/kg, po administered for 7 days by Masson staining based analysis; type: functional, organism-based; settings: dose 15-60 mg/kg, time 7.0 day
[16] = system: Mus musculus; experiment: Anti-inflammatory activity against PM2.5-induced lung injury C57BL/6 mouse model assessed as reduction in number of cells in BALF at 15 to 60 mg/kg, po administered for 7 days; type: functional, organism-based; settings: dose 15-60 mg/kg, time 7.0 day
[17] = system: NCI-H292; experiment: Anti-inflammatory activity against EGF-induced human NCI-H292 cells assessed as decrease in MUC5AC mRNA expression at 20 to 50 uM by RT-qPCR analysis; type: functional, cell-based; settings: dose 20-50 µM
[18] = system: Mus musculus; experiment: Anti-inflammatory activity against PM2.5-induced lung injury C57BL/6 mouse model assessed as infiltration of inflammatory cells at 15 to 60 mg/kg, po administered for 7 days by H and E staining based analysis; type: functional, organism-based; settings: dose 15-60 mg/kg, time 7.0 day
[19] = system: RAW264.7; experiment: Activation of Nrf2/HO-1 signalling pathway in LPS-induced mouse RAW264.7 cells assessed as induction of Nrf2 nuclear translocation at 20 uM; type: cell-based; settings: filed as activator
[20] = Toxicity in C57BL/6 mouse assessed as reduction in body weight at 15 to 60 mg/kg, po administered for 7 days; type: organism-based; settings: in vivo, 168 h, dose 15-60 mg/kg, time 7 day
[21] = Toxicity in C57BL/6 mouse assessed as liver damage at 15 to 60 mg/kg, po administered for 7 days by H and E staining based analysis; type: organism-based; settings: in vivo, 168 h, dose 15-60 mg/kg, time 7 day
[22] = system: RAW264.7; experiment: Anti-inflammatory activity against LPS-induced mouse RAW264.7 cells assessed as inhibition of IL-6 level incubated for 24 hrs by ELISA analysis; type: functional, cell-based; settings: RAW264.7, 24 h
[23] = system: Mus musculus; experiment: Anti-inflammatory activity against PM2.5-induced lung injury C57BL/6 mouse model assessed as inhibition of mucin expression in lung at 15 to 60 mg/kg, po administered for 7 days by AB-PAS staining based analysis; type: functional, organism-based; settings: dose 15-60 mg/kg, time 7.0 day
[24] = system: RAW264.7; experiment: Upregulation of Keap1 mRNA level in LPS-induced mouse RAW264.7 cells at 10 to 50 uM; type: functional, cell-based; settings: dose 10-50 µM
[25] = system: Mus musculus; experiment: Anti-inflammatory activity against PM2.5-induced lung injury C57BL/6 mouse model assessed as decrease in iNOS expression in lung at 15 to 60 mg/kg, po administered for 7 days by IHC analysis; type: functional, organism-based; settings: dose 15-60 mg/kg, time 7.0 day
[26] = system: RAW264.7; experiment: Anti-inflammatory activity against LPS-induced mouse RAW264.7 cells assessed as inhibition of IL-1beta mRNA level preincubated with compound for 1 hr followed by LPS-induction and measured after 4 to 24 hrs by RT-qPCR analysis; type: functional, cell-based; settings: dose 10-50 µM, time 5-25 hrs
[27] = system: RAW264.7; experiment: Upregulation of Nrf2 mRNA level in LPS-induced mouse RAW264.7 cells at 10 to 50 uM; type: functional, cell-based; settings: dose 10-50 µM
[28] = system: Mus musculus; experiment: Anti-inflammatory activity against PM2.5-induced lung injury C57BL/6 mouse model assessed as pulmonary alveoli collapse at 15 to 60 mg/kg, po administered for 7 days by H and E staining based analysis; type: functional, organism-based; settings: dose 15-60 mg/kg, time 7.0 day
[29] = system: Mus musculus; experiment: Anti-inflammatory activity against PM2.5-induced lung injury C57BL/6 mouse model assessed as decrease in LY6G expression in lung at 15 to 60 mg/kg, po administered for 7 days by IHC analysis; type: functional, organism-based; settings: dose 15-60 mg/kg, time 7.0 day
[30] = system: RAW264.7; experiment: Activation of Nrf2/HO-1 signalling pathway in LPS-induced mouse RAW264.7 cells assessed as induction of Nrf2 nuclear translocation at 20 uM in presence of KI696; type: cell-based; settings: filed as activator
[31] = system: RAW264.7; experiment: Activation of Nrf2-Keap1-HO-1 signaling pathway in mouse RAW264.7 cells assessed as upregulation of HO-1 expression at 10 to 50 uM by Western blot analysis; type: cell-based; settings: filed as activator, dose 10-50 µM
[32] = system: Mus musculus; experiment: Anti-inflammatory activity against PM2.5-induced lung injury C57BL/6 mouse model assessed as lung particle aggregation at 15 to 60 mg/kg, po administered for 7 days by H and E staining based analysis; type: functional, organism-based; settings: dose 15-60 mg/kg, time 7.0 day
[33] = system: RAW264.7; experiment: Anti-inflammatory activity against LPS-induced mouse RAW264.7 cells assessed as inhibition of IL-6 mRNA level preincubated with compound for 1 hr followed by LPS-induction and measured after 4 to 24 hrs by RT-qPCR analysis; type: functional, cell-based; settings: dose 10-50 µM, time 5-25 hrs
[34] = system: RAW264.7; experiment: Cytotoxicity against mouse RAW264.7 cells at 10 uM by CCK-8 assay; type: functional, cell-based

SMILES: Cc1cccc(-c2cc(C(=O)N(C)/C=C\c3ccccc3)n(-c3ccc(C(F)(F)F)cc3)n2)c1
inhibition at 10 µM [1]: 49.5%
inhibition at 10 µM [2]: 9.84%

SMILES: CN(/C=C\c1ccccc1)C(=O)c1cc(-c2ccccc2)nn1-c1ccc(C(F)(F)F)cc1
inhibition at 10 µM [2]: 94.5%

SMILES: COc1cc([C@@H](CC(=O)O)c2ccc(C)c(CN3C[C@@H](C)Oc4ccccc4S3(=O)=O)c2)cc2nnn(C)c12
Activity [3]: Active
Activity [4]: Active
Activity [5]: Active
Activity [6]: Active

SMILES: CN(/C=C\c1ccccc1)C(=O)/C=C/c1ccccc1 [LANSIUMAMIDE B]
inhibition at 10 µM [1]: 73.4%
inhibition at 10 µM [2]: 18%

IC50 [22]: 4.82 µM
SMILES: CN(/C=C\c1ccccc1)C(=O)c1cc(C(C)(C)C)n(-c2ccc(F)cc2)n1
Activity [7]: Non-toxic
Activity [8]: Active
Activity [9]: Active
Activity [10]: Active
Activity [11]: Active
Activity [12]: Active
Activity [13]: Active
Activity [14]: Dose-dependent-effect
Activity [15]: Active
inhibition at 10 µM [1]: 60.3%
Activity [16]: Active
Activity [5]: Active
Activity [17]: Active
Activity [18]: Active
inhibition at 10 µM [2]: 96%
Activity [19]: Active
Activity [20]: Non-toxic
Activity [21]: Non-toxic
Activity [23]: Active
Activity [24]: Active
Activity [25]: Active
Activity [26]: Dose-dependent-effect
Activity [27]: Active
Activity [28]: Active
Activity [29]: Active
Activity [30]: Active
Activity [31]: Active
Activity [32]: Active
Activity [33]: Dose-dependent-effect

SMILES: Cc1ccccc1-c1cc(C(=O)N(C)/C=C\c2ccccc2)n(-c2ccc(C(F)(F)F)cc2)n1
inhibition at 10 µM [2]: 95.8%

SMILES: CN(/C=C\c1ccccc1)C(=O)c1cc(-c2ccc(C(F)(F)F)cc2)nn1-c1ccc(C(F)(F)F)cc1
inhibition at 10 µM [2]: 93.5%

SMILES: COc1ccc(-n2nc(C(=O)N(C)/C=C\c3ccccc3)cc2C(C)(C)C)cc1
inhibition at 10 µM [2]: 94.7%

SMILES: CN(/C=C\c1ccccc1)C(=O)c1cc(-c2ccccc2F)nn1-c1ccc(C(F)(F)F)cc1
inhibition at 10 µM [1]: 50.2%
inhibition at 10 µM [2]: 96.5%

SMILES: CN(/C=C\c1ccccc1)C(=O)c1cc(-c2ccccc2C(F)(F)F)nn1-c1ccc(C(F)(F)F)cc1
inhibition at 10 µM [2]: 96%

SMILES: Cc1ccc(-n2nc(C(=O)N(C)/C=C\c3ccccc3)cc2C(C)(C)C)cc1
Activity [34]: Active

SMILES: Cc1ccc(-c2cc(C(=O)N(C)/C=C\c3ccccc3)n(-c3ccc(C(F)(F)F)cc3)n2)cc1
inhibition at 10 µM [2]: 91.1%

SMILES: CN(/C=C\c1ccccc1)C(=O)c1cc(-c2ccccc2Cl)nn1-c1ccc(C(F)(F)F)cc1
inhibition at 10 µM [1]: 53.9%
inhibition at 10 µM [2]: 97.1%
